Assay results from ChEMBL document CHEMBL1201862, “PubChem BioAssay data set” (2004).
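Method: 48-hour compound exposure of cells in 96-well plates, five concentrations, linear interpolation of endpoints. Abbreviation: GI50, concentration required for 50% inhibition of growth.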 Calls of active or inactive are those of the source. Cut-off read from the data, not from the text of the source: active = GI50 up to about 1.1 µM and inactive = higher.

Columns and labels:
Assay in all cases: NCI tumour cell line growth inhibition, 48 h
SW-620 = tested on: SW-620
UO-31 = tested on: UO-31
OVCAR-5 = tested on: OVCAR-5
SF-539 = tested on: SF-539
SNB-75 = tested on: SNB-75
OVCAR-4 = tested on: OVCAR-4
SK-MEL-2 = tested on: SK-MEL-2
HOP-62 = tested on: HOP-62
CAKI-1 = tested on: CAKI-1
SNB-19 = tested on: SNB-19
HCT-116 = tested on: HCT-116
LOX IMVI = tested on: LOX IMVI
UACC-257 = tested on: UACC-257
DU-145 = tested on: DU-145
MDA-MB-231 = tested on: MDA-MB-231
HOP-92 = tested on: HOP-92
UACC-62 = tested on: UACC-62
COLO 205 = tested on: COLO 205
NCI-H460 = tested on: NCI-H460
PC-3 = tested on: PC-3
Malme-3M = tested on: Malme-3M
SR = tested on: SR
T47D = tested on: T47D
HCT-15 = tested on: HCT-15
ACHN = tested on: ACHN
NCI-H23 = tested on: NCI-H23
EKVX = tested on: EKVX
KM12 = tested on: KM12
SK-OV-3 = tested on: SK-OV-3
MOLT-4 = tested on: MOLT-4
SF-295 = tested on: SF-295
NCI-H226 = tested on: NCI-H226
SK-MEL-5 = tested on: SK-MEL-5
SF-268 = tested on: SF-268
RPMI-8226 = tested on: RPMI-8226
CCRF-CEM = tested on: CCRF-CEM
TK-10 = tested on: TK-10
Hs-578T = tested on: Hs-578T
K562 = tested on: K562
MDA-MB-435 = tested on: MDA-MB-435
M14 = tested on: M14
U-251 = tested on: U-251
HT-29 = tested on: HT-29
NCI-H522 = tested on: NCI-H522
OVCAR-3 = tested on: OVCAR-3
MCF7 = tested on: MCF7
BT-549 = tested on: BT-549
A549 = tested on: A549
OVCAR-8 = tested on: OVCAR-8
MDA-N = tested on: MDA-N
IGROV-1 = tested on: IGROV-1
SN12C = tested on: SN12C
NCI/ADR-RES = tested on: NCI/ADR-RES
HCC 2998 = tested on: HCC 2998
SK-MEL-28 = tested on: SK-MEL-28
786-0 = tested on: 786-0
HL-60 = tested on: HL-60
RXF 393 = tested on: RXF 393
A498 = tested on: A498

COc1ccc2c(c1)-c1c(c3ccccc3n1CCN1CCOCC1)CC2
GI50 (SW-620): 32.1 µM (inactive)
GI50 (UO-31): 22.6 µM (inactive)
GI50 (OVCAR-5): 35.2 µM (inactive)
GI50 (SF-539): 25 µM (inactive)
GI50 (SNB-75): 10.8 µM (inactive)
GI50 (OVCAR-4): 56.6 µM (inactive)
GI50 (SK-MEL-2): 11 µM (inactive)
GI50 (HOP-62): 20.1 µM (inactive)
GI50 (CAKI-1): 17.5 µM (inactive)
GI50 (SNB-19): 21 µM (inactive)
GI50 (HCT-116): 22.4 µM (inactive)
GI50 (LOX IMVI): 16.6 µM (inactive)
GI50 (UACC-257): 36.7 µM (inactive)
GI50 (DU-145): 58.9 µM (inactive)
GI50 (MDA-MB-231): 18.9 µM (inactive)
GI50 (HOP-92): 36.6 µM (inactive)
GI50 (UACC-62): 18.8 µM (inactive)
GI50 (COLO 205): 16 µM (inactive)
GI50 (NCI-H460): 16.8 µM (inactive)
GI50 (PC-3): 14.8 µM (inactive)
GI50 (Malme-3M): 14.6 µM (inactive)
GI50 (SR): 19.1 µM (inactive)
GI50 (T47D): 21.5 µM (inactive)
GI50 (HCT-15): 25.9 µM
GI50 (ACHN): 35.7 µM (inactive)
GI50 (NCI-H23): 21.7 µM (inactive)
GI50 (EKVX): 16.4 µM (inactive)
GI50 (KM12): 11.5 µM (inactive)
GI50 (SK-OV-3): 53.1 µM (inactive)
GI50 (MOLT-4): 13 µM (inactive)
GI50 (SF-295): 16 µM (inactive)
GI50 (NCI-H226): 11.7 µM (inactive)
GI50 (SK-MEL-5): 14.5 µM (inactive)
GI50 (SF-268): 19 µM (inactive)
GI50 (RPMI-8226): 19.4 µM (inactive)
GI50 (CCRF-CEM): 22.4 µM (inactive)
GI50 (TK-10): 0.0363 µM (active)
GI50 (Hs-578T): 13.5 µM (inactive)
GI50 (K562): 15.6 µM (inactive)
GI50 (MDA-MB-435): 34.5 µM (inactive)
GI50 (M14): 35 µM (inactive)
GI50 (U-251): 26 µM (inactive)
GI50 (HT-29): 13.1 µM (inactive)
GI50 (NCI-H522): 15.3 µM (inactive)
GI50 (OVCAR-3): 18.2 µM (inactive)
GI50 (MCF7): 32.3 µM (inactive)
GI50 (BT-549): 23 µM (inactive)
GI50 (A549): 27.1 µM (inactive)
GI50 (OVCAR-8): 16 µM (inactive)
GI50 (MDA-N): 36.7 µM (inactive)
GI50 (IGROV-1): 5.47 µM (inactive)
GI50 (SN12C): 28.2 µM (inactive)
GI50 (NCI/ADR-RES): 11.7 µM (inactive)
GI50 (HCC 2998): 18.2 µM (inactive)
GI50 (SK-MEL-28): 55.1 µM (inactive)
GI50 (786-0): 22.6 µM (inactive)

C/C(=C/CC[C@](C)(OC1OC(CO)C(O)C(O)C1O)[C@H]1CC[C@]2(C)[C@@H]1CC[C@@H]1[C@@]3(C)CC[C@H](O)C(C)(C)[C@@H]3C[C@H](O)[C@]12CO)CO (stereo partly drawn)
GI50 (SW-620): > 100 µM (inactive)
GI50 (UO-31): > 100 µM (inactive)
GI50 (OVCAR-5): > 100 µM (inactive)
GI50 (SF-539): > 100 µM (inactive)
GI50 (SNB-75): > 100 µM (inactive)
GI50 (HL-60): > 100 µM (inactive)
GI50 (OVCAR-4): > 100 µM (inactive)
GI50 (HOP-62): > 100 µM (inactive)
GI50 (CAKI-1): > 100 µM (inactive)
GI50 (SNB-19): > 100 µM (inactive)
GI50 (HCT-116): > 100 µM (inactive)
GI50 (LOX IMVI): > 100 µM (inactive)
GI50 (UACC-257): > 100 µM (inactive)
GI50 (DU-145): > 100 µM (inactive)
GI50 (MDA-MB-231): > 100 µM (inactive)
GI50 (HOP-92): > 100 µM (inactive)
GI50 (UACC-62): > 100 µM (inactive)
GI50 (COLO 205): > 100 µM (inactive)
GI50 (NCI-H460): > 100 µM (inactive)
GI50 (PC-3): > 100 µM (inactive)
GI50 (Malme-3M): > 100 µM (inactive)
GI50 (SR): > 100 µM (inactive)
GI50 (T47D): > 100 µM (inactive)
GI50 (HCT-15): > 100 µM
GI50 (ACHN): > 100 µM (inactive)
GI50 (NCI-H23): > 100 µM (inactive)
GI50 (RXF 393): > 100 µM (inactive)
GI50 (A498): > 100 µM (inactive)
GI50 (EKVX): > 100 µM (inactive)
GI50 (KM12): > 100 µM (inactive)
GI50 (SK-OV-3): > 100 µM (inactive)
GI50 (MOLT-4): > 100 µM (inactive)
GI50 (SF-295): > 100 µM (inactive)
GI50 (NCI-H226): > 100 µM (inactive)
GI50 (SK-MEL-5): > 100 µM (inactive)
GI50 (SF-268): > 100 µM (inactive)
GI50 (RPMI-8226): > 100 µM (inactive)
GI50 (CCRF-CEM): > 100 µM (inactive)
GI50 (TK-10): > 100 µM (inactive)
GI50 (Hs-578T): > 100 µM (inactive)
GI50 (K562): > 100 µM (inactive)
GI50 (MDA-MB-435): > 100 µM (inactive)
GI50 (M14): > 100 µM (inactive)
GI50 (U-251): > 100 µM (inactive)
GI50 (HT-29): > 100 µM (inactive)
GI50 (NCI-H522): > 100 µM (inactive)
GI50 (OVCAR-3): > 100 µM (inactive)
GI50 (MCF7): > 100 µM (inactive)
GI50 (BT-549): > 100 µM (inactive)
GI50 (A549): > 100 µM (inactive)
GI50 (OVCAR-8): > 100 µM (inactive)
GI50 (MDA-N): > 100 µM (inactive)
GI50 (IGROV-1): > 100 µM (inactive)
GI50 (SN12C): > 100 µM (inactive)
GI50 (NCI/ADR-RES): > 100 µM (inactive)
GI50 (SK-MEL-28): > 100 µM (inactive)
GI50 (786-0): > 100 µM (inactive)
